# Data reported in ChEMBL document CHEMBL4765330, “Synthesis of some steroidal mitocans of nanomolar cytotoxicity acting by apoptosis” (Eur J Med Chem, 2020).
# How the values were obtained:
# A-375 [1] = assay: Cytotoxicity against human A375 cells assessed as reduction in cell viability incubated for 72 hrs by SRB assay; assay type: functional, cell-based
# HT-29 = assay: Cytotoxicity against human HT29 cells assessed as reduction in cell viability incubated for 72 hrs by SRB assay; assay type: functional, cell-based
# MCF7 = assay: Cytotoxicity against human MCF7 cells assessed as reduction in cell viability incubated for 72 hrs by SRB assay; assay type: functional, cell-based
# A2780 [2] = assay: Cytotoxicity against human A2780 cells assessed as reduction in cell viability incubated for 72 hrs by SRB assay; assay type: functional, cell-based
# FaDu = assay: Cytotoxicity against human FaDu cells assessed as reduction in cell viability incubated for 72 hrs by SRB assay; assay type: functional, cell-based
# NIH3T3 = assay: Cytotoxicity against mouse NIH3T3 cells assessed as reduction in cell viability incubated for 72 hrs by SRB assay; assay type: cell-based
# [3] = Selectivity index, ratio of IC50 for mouse NIH3T3 cells to IC50 for human A375 cells incubated for 72 hrs by SRB assay; assay type: toxicity; details: NIH3T3 cells versus A375 cells, read-out: Ratio IC50
# A-375 [4] = assay: Induction of apoptosis in human A375 cells assessed as apoptotic cells after 48 hrs by annexin V-FITC and propidium iodide staining based flow cytometric analysis; assay type: functional
# A-375 [5] = assay: Induction of apoptosis in human A375 cells assessed as late apoptotic cells after 48 hrs by annexin V-FITC and propidium iodide staining based flow cytometric analysis; assay type: functional
# A-375 [6] = assay: Induction of apoptosis in human A375 cells assessed as necrotic cells after 48 hrs by annexin V-FITC and propidium iodide staining based flow cytometric analysis; assay type: functional
# A2780 [7] = assay: Cell cycle arrest in human A2780 cells assessed as accumulation at G1 phase after 48 hrs by PI staining based flow cytometric analysis (reference value: 54.53 %); assay type: functional
# A2780 [8] = assay: Cell cycle arrest in human A2780 cells assessed as accumulation at S phase after 48 hrs by PI staining based flow cytometric analysis (reference value: 34.22 %); assay type: functional
# A2780 [9] = assay: Cell cycle arrest in human A2780 cells assessed as accumulation at G2/M phase after 48 hrs by PI staining based flow cytometric analysis (reference value: 11.25 %); assay type: functional
# A2780 [10] = assay: Cell cycle arrest in human A2780 cells assessed as apoptotic cells after 48 hrs by PI staining based flow cytometric analysis (reference value: 0.48 %); assay type: functional
# in vitro [11] = details: mouse, NIH3T3 cells versus HT29 cells
# Description: Selectivity index, ratio of IC50 for mouse NIH3T3 cells to IC50 for human HT29 cells incubated for 72 hrs by SRB assay
# in vitro [12] = details: mouse, NIH3T3 cells versus MCF7 cells
# Description: Selectivity index, ratio of IC50 for mouse NIH3T3 cells to IC50 for human MCF7 cells incubated for 72 hrs by SRB assay
# in vitro [13] = details: mouse, NIH3T3 cells versus A2780 cells
# Description: Selectivity index, ratio of IC50 for mouse NIH3T3 cells to IC50 for human A2780 cells incubated for 72 hrs by SRB assay
# in vitro [14] = details: mouse, NIH3T3 cells versus FaDu cells
# Description: Selectivity index, ratio of IC50 for mouse NIH3T3 cells to IC50 for human FaDu cells incubated for 72 hrs by SRB assay
# [15] = Drug uptake in mitochondria of human A2780 cells at 0.054 mM incubated for 1 hr with compound and Hoechst 33342 and followed by further incubation with Rhodamine123 for 20 mins by fluorescence microscopic method; assay type: ADME; details: a2780, 1.333 h, 54 µM, time 80 min
# [16] = Drug uptake in nucleus of human A2780 cells at 0.054 mM incubated for 1 hr with compound and Hoechst 33342 and followed by further incubation with Rhodamine123 for 20 mins by fluorescence microscopic method; assay type: ADME, subcellular; details: a2780, 1.333 h, 54 µM, time 80 min
# [17] = Homo sapiens, A-375, 72 h, read-out: IC50
# [18] = Homo sapiens, HT-29, 72 h, read-out: IC50
# [19] = Homo sapiens, MCF7, 72 h, read-out: IC50
# [20] = Homo sapiens, A2780, 72 h, read-out: IC50
# [21] = Homo sapiens, FaDu, 72 h, read-out: IC50
# [22] = Mus musculus, NIH3T3, 72 h, read-out: IC50
structure (smiles),measurement,setting,value
CCN(CC)c1ccc2c(-c3ccccc3C(=O)OCC(=O)[C@@]3(O)CC[C@H]4[C@@H]5CCC6=CC(=O)C=C[C@@]6(C)[C@H]5C(=O)C[C@@]43C)c3ccc(=[N+](CC)CC)cc-3oc2c1.[Cl-],IC50,A-375 [1]; [17],0.1 µM
same,IC50,HT-29; [18],0.6 µM
same,IC50,MCF7; [19],0.2 µM
same,IC50,A2780 [2]; [20],0.3 µM
same,IC50,FaDu; [21],0.4 µM
same,IC50,NIH3T3; [22],1.8 µM
same,selectivity ratio at 72 h,[3],1.8
same,Activity,A-375 [4],48%
same,Activity,A-375 [5],14%
same,Activity,A-375 [6],2%
same,Activity,A2780 [7],12.78%
same,Activity,A2780 [8],87.22%
same,Activity,A2780 [9],0%
same,Activity,A2780 [10],37.36%
same,selectivity ratio at 72 h,in vitro [11],2.9
same,selectivity ratio at 72 h,in vitro [12],7.3
same,selectivity ratio at 72 h,in vitro [13],5.2
same,selectivity ratio at 72 h,in vitro [14],4.1
CCN(CC)c1ccc2c(-c3ccccc3C(=O)O[C@H]3CC[C@H]4[C@@H]5CCC6=CC(=O)CC[C@]6(C)[C@H]5CC[C@]34C)c3ccc(=[N+](CC)CC)cc-3oc2c1.[Cl-],IC50,A-375 [1]; [17],0.16 µM
same,IC50,HT-29; [18],0.12 µM
same,IC50,MCF7; [19],0.06 µM
same,IC50,A2780 [2]; [20],0.08 µM
same,IC50,FaDu; [21],0.2 µM
same,IC50,NIH3T3; [22],0.2 µM
same,selectivity ratio at 72 h,[3],1.1
same,Drug uptake,[15],Active
same,Drug uptake,[16],Not Active
same,Activity,A-375 [4],5%
same,Activity,A-375 [5],12%
same,Activity,A-375 [6],20%
same,Activity,A2780 [7],51.77%
same,Activity,A2780 [8],44.74%
same,Activity,A2780 [9],3.48%
same,Activity,A2780 [10],3.29%
same,selectivity ratio at 72 h,in vitro [11],1.5
same,selectivity ratio at 72 h,in vitro [12],3.1
same,selectivity ratio at 72 h,in vitro [13],2.2
same,selectivity ratio at 72 h,in vitro [14],1
CCN(CC)c1ccc2c(-c3ccccc3C(=O)O[C@H]3CC[C@@]4(C)C(=CC[C@@H]5[C@@H]4CC[C@]4(C)C(c6cccnc6)=CC[C@@H]54)C3)c3ccc(=[N+](CC)CC)cc-3oc2c1,IC50,A-375 [1]; [17],0.2 µM
same,IC50,HT-29; [18],0.2 µM
same,IC50,MCF7; [19],0.2 µM
same,IC50,A2780 [2]; [20],0.1 µM
same,IC50,FaDu; [21],0.2 µM
same,IC50,NIH3T3; [22],0.3 µM
same,selectivity ratio at 72 h,[3],1.7
same,selectivity ratio at 72 h,in vitro [11],1.1
same,selectivity ratio at 72 h,in vitro [12],1.6
same,selectivity ratio at 72 h,in vitro [13],1.8
same,selectivity ratio at 72 h,in vitro [14],1.8
CCN(CC)c1ccc2c(-c3ccccc3C(=O)O[C@H]3CC[C@@]4(C)C(=CC[C@H]5[C@@H]6CC[C@H]([C@H](C)CCCC(C)C)[C@@]6(C)CC[C@@H]54)C3)c3ccc(=[N+](CC)CC)cc-3oc2c1.[Cl-],IC50,A-375 [1]; a-375,Nd(Insoluble)
same,IC50,HT-29; ht-29,Nd(Insoluble)
same,IC50,MCF7; mcf7,Nd(Insoluble)
same,IC50,A2780 [2]; a2780,Nd(Insoluble)
same,IC50,FaDu; fadu,Nd(Insoluble)
same,IC50,NIH3T3; nih3t3,Nd(Insoluble)
C=C(c1ccc(C(=O)N2CCN(C(=O)c3ccccc3-c3c4ccc(=[N+](CC)CC)cc-4oc4cc(N(CC)CC)ccc34)CC2)cc1)c1cc2c(cc1C)C(C)(C)CCC2(C)C.[Cl-],IC50,A-375 [1]; a-375,Nd(Insoluble)
same,IC50,HT-29; ht-29,Nd(Insoluble)
same,IC50,MCF7; mcf7,Nd(Insoluble)
same,IC50,A2780 [2]; a2780,Nd(Insoluble)
same,IC50,FaDu; fadu,Nd(Insoluble)
same,IC50,NIH3T3; nih3t3,Nd(Insoluble)
C[C@]12CC[C@H](O)C=C1CC[C@@H]1[C@@H]2CC[C@]2(C)C(c3cccnc3)=CC[C@@H]12,IC50,A-375 [1]; a-375,Nd(Insoluble)
same,IC50,HT-29; ht-29,Nd(Insoluble)
same,IC50,MCF7; mcf7,Nd(Insoluble)
same,IC50,A2780 [2]; a2780,Nd(Insoluble)
same,IC50,FaDu; fadu,Nd(Insoluble)
same,IC50,NIH3T3; nih3t3,Nd(Insoluble)
CCN(CC)c1ccc2c(-c3ccccc3C(=O)N3CCNCC3)c3ccc(=[N+](CC)CC)cc-3oc2c1,IC50,A-375 [1]; [17],> 30 µM
same,IC50,HT-29; [18],> 30 µM
same,IC50,MCF7; [19],17.8 µM
same,IC50,A2780 [2]; [20],26.4 µM
same,IC50,FaDu; [21],> 30 µM
same,IC50,NIH3T3; [22],> 30 µM
same,selectivity ratio at 72 h,in vitro [13],1.1
C=C(c1ccc(C(=O)O)cc1)c1cc2c(cc1C)C(C)(C)CCC2(C)C [BEXAROTENE],IC50,A-375 [1]; [17],28.4 µM
same,IC50,HT-29; [18],> 30 µM
same,IC50,MCF7; [19],10.6 µM
same,IC50,A2780 [2]; [20],26.5 µM
same,IC50,FaDu; [21],29.8 µM
same,IC50,NIH3T3; [22],18.7 µM
same,selectivity ratio at 72 h,[3],0.7
same,selectivity ratio at 72 h,in vitro [12],1.8
same,selectivity ratio at 72 h,in vitro [13],0.6
same,selectivity ratio at 72 h,in vitro [14],0.6
COc1cccc2c1C(=O)c1c(O)c3c(c(O)c1C2=O)C[C@@](O)(C(=O)CO)C[C@@H]3O[C@H]1C[C@H](N)[C@H](O)[C@H](C)O1 [DOXORUBICIN],IC50,HT-29; [18],0.9 µM
same,IC50,A2780 [2]; [20],0.01 µM
same,IC50,NIH3T3; [22],0.4 µM
C[C@]12C=CC(=O)C=C1CC[C@@H]1[C@@H]2C(=O)C[C@@]2(C)[C@H]1CC[C@]2(O)C(=O)CO [PREDNISONE],IC50,A-375 [1]; [17],> 30 µM
same,IC50,HT-29; [18],> 30 µM
same,IC50,MCF7; [19],> 30 µM
same,IC50,FaDu; [21],> 30 µM
same,IC50,NIH3T3; [22],> 30 µM
CN[C@@H]1C[C@H]2O[C@@](C)([C@@H]1OC)n1c3ccccc3c3c4c(c5c6ccccc6n2c5c31)C(=O)NC4 [STAUROSPORINE],IC50,NIH3T3; [22],0.008 µM
